# Assay results taken from ChEMBL document CHEMBL5724696, “Autophagy assay results for EUbOPEN Chemogenomics Library” (2024).
# How the values were obtained:
# Type in all cases: functional, Homo sapiens
# U2OS [1] = assay: (§1) Here: values are normalized to the negative (DMSO; defined as 0% autophagy induction) and positive (250nM Torin1; mTOR inhibitor; defined as maximal inducer of autophagy = 100%) control compounds and represented as % of autophagy induction. […] The impact of autophagy induction on cells is complex and depends on the affected target. As such, the magnitude of a phenotype may not be equally mirrored in the %-value of autophagy induction and vice versa. The dynamics of the induction may indicate the mode of activation: e.g. activation via phosphorylation or a signaling cascade may occur fast, while activation via transcription factors may take considerably longer. […] Of note, treatment concentrations may be sub-optimal for specific compounds, leading to false negative annotations.; settings: Culturing Media DMEM, 1 % Penicillin/Streptomycin, 10% Fetal bovin serum Add-On: No, Screening Media Control DMEM, Screening Media Samples DMEM
# U2OS [2] = assay: as §1; settings: Culturing Media DMEM, 1 % Penicillin/Streptomycin, 10% Fetal bovin serum Add-On: No, Screening Media Control DMEM, Screening Media Samples DMEM; remark: listed apart in the source
# TERT-RPE1 = assay: as §1; settings: Culturing Media DMEM/F12 (1:1), 1 % Penicillin/Streptomycin, 10% Fetal bovin serum Add-On: No, Screening Media Control DMEM/F12 (1:1), Screening Media Samples DMEM/F12 (1:1)
# [3] = Compound Concentration 0.5 uM, Timepoint 12 hours
# [4] = Compound Concentration 0.5 uM, Timepoint 24 hours
# [5] = Compound Concentration 0.5 uM, Timepoint 36 hours
# [6] = Compound Concentration 0.5 uM, Timepoint 60 hours
# [7] = Compound Concentration 2 uM, Timepoint 12 hours
# [8] = Compound Concentration 2 uM, Timepoint 24 hours
# [9] = Compound Concentration 2 uM, Timepoint 36 hours
# [10] = Compound Concentration 2 uM, Timepoint 60 hours
# [11] = Compound Concentration 10 uM, Timepoint 12 hours
# [12] = Compound Concentration 10 uM, Timepoint 24 hours
# [13] = Compound Concentration 10 uM, Timepoint 36 hours
# [14] = Compound Concentration 10 uM, Timepoint 60 hours
structure (smiles),measurement,setting,value
O=C(O)C1CN(Cc2ccc(OCc3ccc(Cl)c(Cl)c3)cc2)C1,autophagy induction,U2OS [1]; [3],-6.393%
same,autophagy induction,U2OS [1]; [4],-7.561%
same,autophagy induction,U2OS [1]; [5],-8.567%
same,autophagy induction,U2OS [1]; [6],-6.096%
same,autophagy induction,U2OS [1]; [7],2.736%
same,autophagy induction,U2OS [1]; [8],-0.6379%
same,autophagy induction,U2OS [1]; [9],3.003%
same,autophagy induction,U2OS [1]; [10],6.192%
same,autophagy induction,U2OS [1]; [11],4.494%
same,autophagy induction,U2OS [1]; [12],-1.815%
same,autophagy induction,U2OS [1]; [13],-1.999%
same,autophagy induction,U2OS [1]; [14],-2.676%
same,autophagy induction,U2OS [2]; [3],-1.025%
same,autophagy induction,U2OS [2]; [4],-0.5625%
same,autophagy induction,U2OS [2]; [5],-1.224%
same,autophagy induction,U2OS [2]; [6],-0.01663%
same,autophagy induction,U2OS [2]; [7],2.871%
same,autophagy induction,U2OS [2]; [8],0.8864%
same,autophagy induction,U2OS [2]; [9],0.6277%
same,autophagy induction,U2OS [2]; [10],0.8248%
same,autophagy induction,U2OS [2]; [11],1.474%
same,autophagy induction,U2OS [2]; [12],3.015%
same,autophagy induction,U2OS [2]; [13],1.861%
same,autophagy induction,U2OS [2]; [14],1.49%
same,autophagy induction,TERT-RPE1; [3],-8.997%
same,autophagy induction,TERT-RPE1; [4],-11.1742%
same,autophagy induction,TERT-RPE1; [5],-13.4476%
same,autophagy induction,TERT-RPE1; [6],-16.3767%
same,autophagy induction,TERT-RPE1; [7],-4.026%
same,autophagy induction,TERT-RPE1; [8],-8.149%
same,autophagy induction,TERT-RPE1; [9],-12.0341%
same,autophagy induction,TERT-RPE1; [10],-15.552%
same,autophagy induction,TERT-RPE1; [11],-3.6803%
same,autophagy induction,TERT-RPE1; [12],-2.7744%
same,autophagy induction,TERT-RPE1; [13],-2.708%
same,autophagy induction,TERT-RPE1; [14],-2.7926%
